From PubChem BioAssay (NCI)
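In this assay, cells in 96-well plates receive the compound at five concentrations for 48 hours. Endpoints are linearly interpolated between the surrounding concentrations. GI50 = concentration required for 50% inhibition of growth. TGI: concentration producing complete growth inhibition.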

What was measured:
Assay in all cases: inhibition of tumour cell growth, NCI panel, 48 h
SF-268 CNS = tested on: SF-268 CNS
TK-10 renal = tested on: TK-10 renal
HT29 colon = tested on: HT29 colon
NCI-H460 lung = tested on: NCI-H460 lung
UACC-62 melanoma = tested on: UACC-62 melanoma
EKVX NSCLC = tested on: EKVX NSCLC
NCI/ADR-RES ovarian = tested on: NCI/ADR-RES ovarian
SN12C renal = tested on: SN12C renal
UACC-257 melanoma = tested on: UACC-257 melanoma
NCI-H522 lung = tested on: NCI-H522 lung

| Structure (SMILES) | GI50 (SF-268 CNS) [µM] | TGI (SF-268 CNS) [µM] | GI50 (TK-10 renal) [µM] | TGI (TK-10 renal) [µM] | GI50 (HT29 colon) [µM] | TGI (HT29 colon) [µM] | GI50 (NCI-H460 lung) [µM] | TGI (NCI-H460 lung) [µM] | GI50 (UACC-62 melanoma) [µM] | TGI (UACC-62 melanoma) [µM] | GI50 (EKVX NSCLC) [µM] | TGI (EKVX NSCLC) [µM] | GI50 (NCI/ADR-RES ovarian) [µM] | TGI (NCI/ADR-RES ovarian) [µM] | GI50 (SN12C renal) [µM] | TGI (SN12C renal) [µM] | GI50 (UACC-257 melanoma) [µM] | TGI (UACC-257 melanoma) [µM] | GI50 (NCI-H522 lung) [µM] | TGI (NCI-H522 lung) [µM] |
| --- | --- | --- | --- | --- | --- | --- | --- | --- | --- | --- | --- | --- | --- | --- | --- | --- | --- | --- | --- | --- |
| CCOC(=O)c1c2c(n(Cc3ccccc3)c1C)-c1nc(Cc3ccccc3)[nH]c1C(=O)C2=O | 1.91 | 4.59 | 1.48 | 3.08 | 1.64 | 3 | 1.96 | 4.22 | 1.74 | 3.55 | 1.84 | 3.27 | 2.51 | 5.28 | 1.58 | 3.21 | 2.82 | 8.71 | – | – |
| CC(=O)c1cccc(-c2cccc(-c3ccn(CCN4CCOCC4)n3)c2)c1 | > 20 | > 20 | > 20 | > 20 | > 20 | > 20 | > 20 | > 20 | > 20 | > 20 | – | – | > 20 | > 20 | > 20 | > 20 | > 20 | > 20 | > 20 | > 20 |
| COC(=O)[C@H]1[C@H]2C[C@@H]3c4[nH]c5cc(OC)ccc5c4CCN3C[C@H]2C[C@@H](OC(=O)/C=C/c2cc(OC)c(OC)c(OC)c2)[C@@H]1OC | 9.48 | > 100 | 3.35 | 11.3 | – | – | 4.82 | > 100 | 14.5 | 33.4 | 14.1 | > 100 | 4.55 | 28.5 | 4.56 | > 100 | 18.4 | 68.1 | 10.4 | 27 |
| CS(=O)(=O)NNS(=O)(=O)c1ccc(Cl)cc1 | – | – | – | > 100 | – | > 100 | – | > 100 | – | > 100 | – | > 100 | – | – | – | > 100 | – | > 100 | – | > 100 |
| O=C(CSc1nc(-c2ccccc2)c(-c2ccccc2)[nH]1)NNC(=S)Nc1ccccc1 | – | > 100 | – | > 100 | – | > 100 | – | > 100 | – | > 100 | – | > 100 | – | – | – | > 100 | – | > 100 | – | > 100 |
| CCn1c(=O)c2c3ccc(OC(C)=O)cc3[nH]c2c2ccc(OC(C)=O)cc21 | – | > 100 | – | > 100 | – | > 100 | – | > 100 | – | > 100 | – | – | – | > 100 | – | > 100 | – | > 100 | – | > 100 |
| CC(/C=C/NNC1=NC(c2ccccc2)C(c2ccccc2)=NN1)Sc1ccccc1N (stereo not drawn) | – | 16 | – | 27.2 | – | 23.9 | – | 24.9 | – | 10.8 | – | 32.8 | – | – | – | 18.2 | – | 19.9 | – | 11.7 |
| COC(=O)c1ccc(C(=O)OC)c2nc3cc(C)ccc3nc12 | – | > 100 | – | > 100 | – | > 100 | – | > 100 | – | > 100 | – | > 100 | – | – | – | > 100 | – | > 100 | – | – |
| COc1cc2c3c(ncc2c(OC)c1OC)-c1cc2c(cc1C3)OCO2 | – | – | 19.3 | 46.5 | – | – | > 100 | > 100 | 22.4 | 65.9 | 17.2 | 73.9 | 36.9 | > 100 | – | – | – | – | – | – |
| O=C(N/N=C/c1ccc(Cl)cc1)c1[nH]c2ccc(Cl)cc2c1-c1ccccc1 | 0.161 | > 42.3 | 3.3 | 59.7 | 0.122 | > 36 | 0.328 | 3.99 | 0.191 | > 52.5 | 0.317 | > 100 | – | – | 0.206 | > 70.4 | 7.42 | > 100 | 0.0458 | 0.167 |
| CC1=C(/C=C/C(C)=C/C=C/C(C)=C/C=C/C=C(C)/C=C/C=C(C)/C=C/C2=C(C)C(=O)C(O)CC2(C)C)C(C)(C)CC(O)C1=O (stereo not drawn) | – | > 100 | – | > 100 | – | > 100 | – | > 100 | – | > 100 | – | > 100 | – | – | – | > 100 | – | > 100 | – | > 100 |
| C/C=C(/C)c1cnc(CC(C)C)c(=O)[nH]1 | – | > 100 | – | > 100 | – | > 100 | – | > 100 | – | > 100 | – | > 100 | – | – | – | > 100 | – | > 100 | – | – |
| O=C(O)Cc1ccccc1CCc1ccccc1Cl | – | > 100 | – | > 100 | – | > 100 | – | > 100 | – | – | – | > 100 | – | – | – | > 100 | – | > 100 | – | > 100 |
| CCCCN(CC)c1ncnc2ccc(Br)cc12 | 19.1 | 68 | 19.7 | 39.8 | – | – | 17.9 | 52.9 | 15.7 | 34.7 | – | – | 15.6 | 39.8 | 18.8 | 40.9 | – | – | 21 | > 100 |
| COC(=O)[C@@]1(C)CCC[C@]2(C(=O)O)C3Cc4occc4[C@H](C)[C@@H]3CCC21 (stereo partly drawn) | – | > 100 | – | > 100 | – | 91.8 | – | > 100 | – | > 100 | – | > 100 | – | 82 | – | > 100 | – | – | – | – |
| COc1ccc2ccccc2c1CN1CCOCCOCCN(Cc2c(OC)ccc3ccccc23)CCOCCOCC1 | – | > 100 | – | > 100 | – | > 44 | – | > 100 | – | > 100 | – | > 100 | – | – | – | > 100 | – | 65.5 | – | > 89.8 |
| CCCCN(CCCC)CCc1c(C)cc(C)c(CCN(CCCC)CCCC)c1O | 3.23 | > 100 | 3.03 | > 100 | 2.52 | 13 | 2.91 | 9.59 | 2.86 | 29.7 | – | – | 3.63 | 88.1 | 2.85 | 9.43 | 2.37 | 7.44 | 2.59 | 7.54 |
| Clc1ccc2c(c1)[nH]c1c2nc2sccn21 | – | > 100 | – | > 100 | – | > 100 | – | > 100 | – | > 100 | – | > 100 | – | – | – | > 100 | – | > 100 | – | > 100 |
